Data from patent publication US5157019A, “Serine protease inhibitors” (Monsanto Company, priority 1991, dated 1992).
Ends that are not written are not given here.

What was measured:
Factor D = target: T1, Factor D (Homo sapiens, UniProt P00746); experiment: Factor D assay by inhibition of fluid phase Factor B activation; format: biochemical; settings: Table X; μM concentration at which protease was inhibited 50%; read-out: IC50 D
T1 construct: prepared from pooled human plasma; from tissue; host or cells: pooled human plasma
T1 sequence (P00746 26-253): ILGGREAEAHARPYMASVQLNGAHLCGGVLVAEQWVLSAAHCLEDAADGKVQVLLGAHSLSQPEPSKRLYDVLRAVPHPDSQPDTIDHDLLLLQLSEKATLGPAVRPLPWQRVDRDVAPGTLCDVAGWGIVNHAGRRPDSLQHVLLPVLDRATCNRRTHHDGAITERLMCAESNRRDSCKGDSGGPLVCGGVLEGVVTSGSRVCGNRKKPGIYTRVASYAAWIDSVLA
Method: (§1) Highly purified C3, C4, Factor D, Factor B, and C1s were prepared from pooled human plasma. Factors B and C4 were radiolabeled by periodate oxidation of sialic acid residues, followed by reduction with tritiated sodium borohydride. In a representative experiment, a solution of 1.2 mg of factor B in 1.8 ml of PBS was treated with 70 μl of 0.1M NaIO4. After 10 min incubation on ice, excess reagent was removed by filtration over "SEPHADEX®" which is a matrix for gel chromatography (1.0 cm×20 cm). To the protein pool was added 60 μl of NaB[^3 H]4 solution and incubated for 30 min on ice. Labeled protein was separated from excess reagent by desalting or dialysis. Human C4 was radiolabeled in the same manner. Radiolabeled proteins were stored at -70° C. in PBS. The specific radioactivity of ^3 H factor B was about 10,000 CPM/μg and that of ^3 H-C4 was 5,000 CPM/μg.
The effect of the peptides on Factor D-dependent cleavage of factor B was studied by incubating 3.5 μg of Factor B, 1.5 μg of C3(H2 O) and 0.2 μl of Factor D at 37° C. for 60 min in Mg-PBS containing different concentrations of inhibitor. Uncleaved Factor B and its fragments, Ba and Bb, were first separated by SDS-PAGE and analyzed as described above. The percent cleavage of the reaction was calculated as follows: [formula]
B=radioactivity (CPM) of uncleaved factor B
Bb=radioactivity (CPM) of fragment Bb
Ba=radioactivity (CPM) of fragment Ba
(§2) Electrophoresis was carried out under reducing conditions in the Laemmli system using slab gel of 8% polyacrylamide. The gels were stained and destained (Fairbanks et al. Biochemistry (1971) 10:2606).
(§3) The percent inhibition of the reaction was calculated according to the following relationship: [formula]
(§4) A: % cleavage without inhibitor
(§5) B: % cleavage with inhibitor
(§6) The concentration inducing 50% inhibition was obtained by plotting the percent inhibition on a probability graph (National Blank Book Co., No. 12-083) on the ordinate and the log of the inhibitor concentration on the abscissa. From this graph, a 50% inhibition concentration IC50 was obtained and this value was employed to express the activity.

Cathepsin G = target: T2, Cathepsin G (Homo sapiens, UniProt P08311); experiment: Cathepsin G assay (Suc-Ala-Ala-Pro-Phe-pNA, 410 nm); format: biochemical
T2 construct: purchased Elastin Products Company (EPC) SG-45
T2 sequence (P08311 21-255): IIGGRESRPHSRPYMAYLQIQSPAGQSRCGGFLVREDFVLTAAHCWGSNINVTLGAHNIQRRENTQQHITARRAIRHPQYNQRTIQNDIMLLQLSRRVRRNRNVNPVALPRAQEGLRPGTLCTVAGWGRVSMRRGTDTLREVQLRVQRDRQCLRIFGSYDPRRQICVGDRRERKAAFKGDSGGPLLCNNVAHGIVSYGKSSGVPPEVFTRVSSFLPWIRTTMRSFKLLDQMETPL
Method: Reference: Elastin Products Company (EPC) technical data sheet, cathepsin G, No. SG-45.
Method: Spectrophotometric rate determination
A) Buffer; 0.1M Tris, pH 7.5 at 25° C.
B) Substrate; 60 mM Suc-Ala-Ala-Pro-Phe-pNA obtained from Sigma Chemical Company. Solution prepared by dissolving 50 mg substrate in 1.3 ml of 1-methyl-2-pyrrolidinone. Stored at 5° C.
C) Peptide Inhibitors; 200 μM HCl salt. Depending on peptide solubility, dissolved in buffer or DMSO and then buffer added for a final concentration of 10% DMSO.
D) Enzyme; Cathepsin G, EPC SG-45, lot 85117 used for all assays, 0.0077 mg protein per mg solid determined by supplier by Bradford method. Enzyme was dissolved in buffer at a concentration of approx. 5 mg/ml solid. Solution stored on ice, used within 2 hours.
Pipetted the following into semi-micro quartz cuvettes: 0.3 ml buffer, 0.15 ml peptide solution and 0.5 ml of substrate solution. Equilibrate for 5 min. at 25° C., then add 0.05 ml of enzyme solution and monitor the release of pNA spectrophotometrically at 410 nm for at least 3 minutes. The controls contain either 0.45 ml of buffer or 20% DMSO in buffer (for a final concentration of 10% DMSO).
The rate (O.D./min) is obtained as an average over 3 minutes. [formula]

complement activation = experiment: Reverse passive arthus reaction (RPAR), histopathology of injection sites; format: in vivo, guinea pigs; design: key: 0 indicating no acute inflamation; 1 indication minimal acute inflammation; 2 indicating mild acute inflammation; 3 indicating moderate acute inflammation; settings: for Degree of inflammation, mean score, protease inhibitor only: guinea pig, intradermal injection of peptide without antibody
Method: These exemplary peptide inhibitors (peptides 13, 7 and 27) were assayed for in vivo activity in inhibiting complement activation using the reverse passive arthus reaction (RPAR). RPAR is a model of complement-mediated damage due to activation via interaction with antigen/antibody complexes. Female guinea pigs (400 gm) were pretreated intracardially with bovine serum albumin and Evans blue dye. Ninety minutes later they received bilateral intradermal injections of peptide inhibitor or control material in the thoracolumbar region. Injection sites were excised postmortem and fixed in 10% buffered formalin for pathological evaluation. The peptides were administered to obtain an initial level of […] in the circulatory system.
The histopathological results are outlined below. The degree of inflammation was scored as follows: 0 indicating no acute inflamation; 1 indication minimal acute inflammation; 2 indicating mild acute inflammation; and 3 indicating moderate acute inflammation.

Thrombin = Thrombin (Homo sapiens, UniProt P00734); experiment: Coagulation inhibition assay, thrombin (fibrinogen clotting end point); format: biochemical; settings: 40 μM peptide
Method: Inhibitory activity of subject peptides toward thrombin and Factor Xa were done in the following manner. Mix 100 μL Thrombin (3.125 units/ml, 1.125 μg/ml) in TAB with […] Peptide in TAB and incubate for 1 minute at 37° C. Add 50 μL Fibrinogen (2 mg/ml)and measure clotting end point (in seconds) in a Fibrometer (BBL) TAB=Thrombin Assay Buffer: 0.15M NaCl, 6.6 gm/L PEG-6000, 0.01M Imidazole, 0.01 CaCl2, pH 7.4

C1s = target: T3, C1s (Homo sapiens, UniProt P09871); experiment: C1s assay by inhibition of fluid phase C4 activation; format: biochemical; settings: Table X; μM concentration at which protease was inhibited 50%; read-out: IC50 C1S
T3 construct: prepared from pooled human plasma; from tissue; host or cells: pooled human plasma
T3 sequence (P09871 16-688): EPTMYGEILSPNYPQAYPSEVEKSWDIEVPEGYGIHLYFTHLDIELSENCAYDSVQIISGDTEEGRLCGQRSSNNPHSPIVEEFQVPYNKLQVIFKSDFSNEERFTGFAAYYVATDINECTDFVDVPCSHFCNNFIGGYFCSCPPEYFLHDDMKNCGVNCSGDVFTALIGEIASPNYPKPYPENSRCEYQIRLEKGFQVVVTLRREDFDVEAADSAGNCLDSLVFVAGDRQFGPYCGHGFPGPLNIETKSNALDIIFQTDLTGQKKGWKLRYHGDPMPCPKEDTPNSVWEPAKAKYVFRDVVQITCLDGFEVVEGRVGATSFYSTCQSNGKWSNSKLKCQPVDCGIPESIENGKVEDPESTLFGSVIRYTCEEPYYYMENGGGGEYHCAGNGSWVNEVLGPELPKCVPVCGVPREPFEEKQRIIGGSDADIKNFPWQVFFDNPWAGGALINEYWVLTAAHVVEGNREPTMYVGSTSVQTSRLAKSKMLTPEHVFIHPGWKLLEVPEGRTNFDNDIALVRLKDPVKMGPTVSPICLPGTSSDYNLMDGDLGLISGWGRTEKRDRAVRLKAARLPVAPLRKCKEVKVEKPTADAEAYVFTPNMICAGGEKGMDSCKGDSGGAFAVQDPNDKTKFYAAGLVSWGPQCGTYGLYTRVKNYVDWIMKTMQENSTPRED
Method: as §1
The cleavage of C4 was studied by incubating 10 μg of tritiated C4 with 3-5 ng of C1s at 37° C. for 30 min in 100 μl of PBS (pH 7.10) containing different concentrations of inhibitor. The reaction was stopped by the addition of 2-mercaptoethanol. The extent of cleavage was analyzed by SDS-polyacrylamide gel electrophoresis. The stained bands corresponding to C4α and C4α' were cut out and sliced. The radioactivity of the fragments was measured by liquid scintillation counting. The percent cleavage of the reaction was calculated as follows: [formula]
as §2, §3, §4, §5, §6

[1] = test system: classical pathway of complement activation; experiment: Hemolytic assay, classical pathway (lysis of EA cells by normal human serum); format: cell-based; settings: 25 μM peptide
Method: (§7) METHOD: Complement activation of the classical and alternative pathways is measured by lysis of EA and ER cells (respectively) after incubation with serum. Hemolysis is quantitated spectrophotometrically by the absorbance of hemoglobin at 415 nm.
EA cells: Sheep erythrocyte-antibody conjugates stored at 10^9 cells/ml in DGVB (Veronal buffer plus Ca^++ and Mg,^++, 2.5% w/v dextrose and 0.05% w/v gelatin, 0.01% sodium azide)^1
(§8) h NHS: Normal human serum incubated at 56° C. for 1 hour to inactivate complement components.
(§9) B) Wash EA cell (classical pathway) and ER cell (alternative pathway) suspensions with at least an equal volume of PBS^++ (Phosphate buffered saline, with 0.15 mM Ca^++ and 0.5 mM Mg^++). Spin at 2000 rpm for 5 minutes, decant supernatant and resuspend cells. Wash cells twice or until supernatant is obviously clear of any lysed cellular debris.
C) After the final wash, cells should be resuspended in an appropriate volume of PBS^++ so there are approximately 5×10^8 cells/ml. Dilute cell suspension 1:30 with distilled water and determine the absorbance at 541 nm spectrophotometrically. An adsorbance of 0.175 indicates 5×10^8 cells/ml. […]
(§10) G) Read absorbance (Abs) of the supernatant at 415 nm to determine cell lysis. […]
(§11) c) Dilute NHS and h NHS initially so that 100 ul of that dilution in a total of 250 μl will equal the final dilution calculated in the titer assay. […]

[2] = test system: alternative pathway of complement activation; experiment: Hemolytic assay, alternative pathway (lysis of ER cells by normal human serum); format: cell-based; settings: 25 μM peptide
Method: as §7
ER cells: Rabbit erythrocytes stored at 10^9 in Alsevers buffer, 0.01% sodium azide.^2
as §8, §9
C) After the final wash, cells should be resuspended in an appropriate volume of PBS^++ so there are approximately 5×10^8 cells/ml. Dilute cell suspension 1:30 with distilled water and determine the absorbance at 541 nm spectrophotometrically. An adsorbance of 0.175 indicates 5×10^8 cells/ml. Adjust the volume of the cell suspension accordingly with PBS^++ to get a final concentration of 2.5×10^8 cells/ml. […]
as §10, §11

HUMAN SPUTUM ELASTASE = target: T4, HUMAN SPUTUM ELASTASE (Homo sapiens, UniProt P08246); experiment: Elastase assay (MeO-Suc-Ala-Pro-Val-pNA); format: biochemical; settings: 200 μM peptide
T4 construct: HUMAN SPUTUM ELASTASE; purchased Elastin Products Company SE563; host or cells: human sputum (from the product name)
T4 sequence (P08246 30-267): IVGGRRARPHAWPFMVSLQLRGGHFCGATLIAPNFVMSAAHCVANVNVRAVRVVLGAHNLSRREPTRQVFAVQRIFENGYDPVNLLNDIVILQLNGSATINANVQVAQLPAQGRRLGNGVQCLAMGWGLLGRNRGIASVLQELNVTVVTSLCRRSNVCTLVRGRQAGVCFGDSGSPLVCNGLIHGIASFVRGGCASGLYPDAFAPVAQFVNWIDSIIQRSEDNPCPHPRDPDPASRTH
Method: Enzyme used is "HUMAN SPUTUM ELASTASE®" which is an enzyme which is the target protease for α1 antitrypsin from Elastin Products Company, Catalog No. SE563, lot 85071, 875 units/mg as determined by supplier with N-Suc-Ala-Ala-Ala-pNA; prepared at 0.2 mg/mL in 0.1M Tris·HCl, pH 8.8 at 37 degrees C. An amount of enzyme is used to give approximately 0.1 change in Absorbance/min; which in this assay was 1 μg.
The substrate is MeO-Suc-Ala-Pro-Val-pNA, Sigma Catalog No. M-4765. About 50 mg of the substrate is dissolved in 1 ml of 1-methyl-2-pyrrolidinone and diluted to 33 mls. with 0.1M Tris-HCl, pH 7.5, containing 0.5M NaCl, and 0.01 wt % sodium azide.
Peptide solutions are prepared at 500 μM, using 1.5% of the final volume of DMSO first and diluting with distilled water (DW) or 0.1M Tris.HCl, pH 8.8 at 37 degrees C. [formula]

Plasmin = Plasmin (Homo sapiens, UniProt P00747); experiment: Plasmin assay (S2251); format: biochemical; settings: 200 μM peptide
Plasmin, sequence (P00747 581-810 limits assumed): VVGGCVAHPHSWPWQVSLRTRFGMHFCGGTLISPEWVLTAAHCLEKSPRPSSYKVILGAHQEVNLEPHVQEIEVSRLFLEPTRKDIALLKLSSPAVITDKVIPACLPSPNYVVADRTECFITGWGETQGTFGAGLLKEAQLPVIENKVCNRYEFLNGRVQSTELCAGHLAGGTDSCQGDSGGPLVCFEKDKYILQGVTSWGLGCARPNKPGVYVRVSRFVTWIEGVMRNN
Plasmin, sequence (P00747 97-580 partner limits assumed): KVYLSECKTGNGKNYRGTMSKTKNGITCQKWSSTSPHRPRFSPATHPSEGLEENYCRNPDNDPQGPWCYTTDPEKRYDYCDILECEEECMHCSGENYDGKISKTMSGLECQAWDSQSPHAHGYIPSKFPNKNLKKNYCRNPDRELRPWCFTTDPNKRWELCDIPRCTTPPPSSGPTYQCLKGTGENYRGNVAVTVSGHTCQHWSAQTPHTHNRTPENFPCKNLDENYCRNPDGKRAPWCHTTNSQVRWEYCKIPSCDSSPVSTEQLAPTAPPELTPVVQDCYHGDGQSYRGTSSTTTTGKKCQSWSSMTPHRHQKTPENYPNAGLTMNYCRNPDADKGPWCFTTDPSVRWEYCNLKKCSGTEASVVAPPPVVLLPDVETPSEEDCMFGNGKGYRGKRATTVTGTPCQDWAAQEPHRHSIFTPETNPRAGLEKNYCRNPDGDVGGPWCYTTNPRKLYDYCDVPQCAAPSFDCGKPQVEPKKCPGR
Method: Substrate H-D-Val-Leu-Lys-pNA·HCl (S2251, Kabi), 10 mM in deionized water; may be frozen for future use.
Buffer 50 mM Tris·HCl, pH 7.4 containing 0.01% Tween 80
Inhibitor 400 μM in deionized water
Enzyme Plasmin; 0.5 U/ml in buffer (Cat #P-4895, Sigma Chemical Co., St. Louis, Mo.)
Mix 220 μL buffer, 200 μL deionized water (control) or inhibitor solution and 40 μL substrate. Incubate for 2 min at 37° C. Transfer 230 μL to a microcuvette, add 40 μL of enzyme, mix, and measure rate spectrophotometrically at 405 nm for about 5 min. Inhibition (%) is calculated in the same manner as in previous assays.

[3] = 200 μM peptide (head of Table IX)

Substance | IC50 (Factor D) [µM] | inhibition at 200 µM (Cathepsin G; [3]) [%] | Degree of inflammation, mean score, protease inhibitor only (complement activation) | inhibition at 40 µM (Thrombin) [%] | IC50 (C1s) [µM] | % inhibition, classical pathway (CP) [1] [%] | Degree of inflammation, mean score, antibody plus protease inhibitor (complement activation; guinea pig RPAR, intradermal anti-bovine serum albumin plus peptide, antibody only mean score 3) | % inhibition, alternative pathway (AP) [2] [%] | Cathepsin G % inhibition (Cathepsin G; 100 μM peptide (Tables VI, VIII)) [%] | Cathepsin G Inhibition (Cathepsin G; [3]) [%] | Elastase Inhibition (HUMAN SPUTUM ELASTASE) [%] | Plasmin % inhibition (Plasmin) [%]
AGRSLNPNRVTFKANRPFLVFI [Peptide 7] | 145 | 28 | 0 | 50 | 39 |  |  |  |  |  |  | 
GVRGPRVVERVTFKANRPFLVFI-OH [Peptide 13] |  |  | 0 |  |  | 75 | 1 | 61 |  |  |  | 
LRYNKPFILVLFETPGNSLVFLGRISNPATK [Peptide 23] |  |  |  |  |  |  |  |  | 0 | 0 | 0 | 67
